Tests used:
[1] = Göttingen minipig; cited from earlier work
[2] = target: Bovine Serum Albumin (BSA) (Bos taurus, UniProt P02769); assay: Fraction unbound in 35 μM BSA, equilibrium dialysis; settings: for fraction unbound at 5 h, 1 μM: bovine; for Predicted fu (%) BSA 35 μM (D = 20): calculated with Eq. 2 from fu measured in 100% matrices (ref 20), dilution factor 20
P-gp (human MDR1) [3] = assay: in vitro; settings: dog; for Papp B→A at 60 min, 0.5 μM / efflux ratio at 60 min, 0.5 μM / Papp A→B at 60 min, 0.5 μM: MDCK-MDR1, pH 7.4
P-gp (human MDR1) [4] = assay: Equilibrium distribution study (in vitro Kp,brain / Kp,uu,brain) across MDCKII-MDR1 cells, BSA apical, brain homogenate basolateral, Uni-L and Bi-L; settings: dog; for Kp at 29 h, 1 μM: brain homogenate/BSA ratio
[5] = Fraction unbound in 20-fold diluted brain homogenate, equilibrium dialysis; settings: for fraction unbound at 5 h, 1 μM: Göttingen, minipig, pH 7.4; for Predicted fu (%) Brain (D = 20): calculated with Eq. 2 from fu measured in 100% matrices (ref 20), dilution factor 20
[6] = MDCK-MDR1, pH 7.5, in vitro determined Kp,brain Bi-L, Bi-L (compound loaded both sides), 29 h
[7] = MDCK-MDR1, pH 7.5, in vitro determined Kp,brain Uni-L, Uni-L (compound loaded apically in BSA), 29 h
[8] = pH 7.5, Recovery Bi-L, mass balance Eq. 7, Bi-L, 29 h, % printed
[9] = pH 7.5, Recovery Uni-L, mass balance Eq. 6, Uni-L, 29 h, % printed
[10] = pH 7.5, assay recovery, equilibrium distribution experiment, setup (Uni-L/Bi-L) not given
[11] = 20-fold diluted brain homogenate

Chain of Bovine Serum Albumin (BSA) (P02769 25-607): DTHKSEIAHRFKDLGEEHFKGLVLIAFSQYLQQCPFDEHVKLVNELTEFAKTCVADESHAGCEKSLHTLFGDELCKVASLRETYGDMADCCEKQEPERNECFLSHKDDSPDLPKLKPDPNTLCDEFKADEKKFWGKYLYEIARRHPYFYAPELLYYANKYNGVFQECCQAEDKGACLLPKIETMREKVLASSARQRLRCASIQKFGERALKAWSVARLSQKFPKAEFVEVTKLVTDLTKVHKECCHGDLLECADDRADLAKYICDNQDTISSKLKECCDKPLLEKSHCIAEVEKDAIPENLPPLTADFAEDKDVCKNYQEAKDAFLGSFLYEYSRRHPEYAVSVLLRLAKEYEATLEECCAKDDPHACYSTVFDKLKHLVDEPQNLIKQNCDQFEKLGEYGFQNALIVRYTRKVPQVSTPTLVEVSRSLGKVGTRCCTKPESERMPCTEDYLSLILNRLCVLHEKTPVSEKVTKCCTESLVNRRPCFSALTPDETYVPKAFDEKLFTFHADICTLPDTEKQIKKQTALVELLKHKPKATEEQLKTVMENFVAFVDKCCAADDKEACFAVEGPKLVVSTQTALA

| SMILES | Kp,uu,brain in vivo [1] | fraction unbound at 5 h, 1 μM ([2]; 35 μM BSA) | Predicted fu (%) BSA 35 μM (D = 20) [2] | Papp B→A at 60 min, 0.5 μM (P-gp (human MDR1) [3]) | efflux ratio at 60 min, 0.5 μM (P-gp (human MDR1) [3]) | Kp at 29 h, 1 μM (P-gp (human MDR1) [4]; [6]) | Kp at 29 h, 1 μM (P-gp (human MDR1) [4]; [7]) | recovery at 29 h, 1 μM (P-gp (human MDR1) [4]; [8]) | recovery at 29 h, 1 μM (P-gp (human MDR1) [4]; [9]) | recovery at 29 h, 1 μM (P-gp (human MDR1) [4]; [10]) | fraction unbound at 5 h, 1 μM [5, 11] | Predicted fu (%) Brain (D = 20) [5] | fraction unbound at 5 h, 1 μM ([2]; isolated protein) | fraction unbound at 5 h, 1 μM ([5]; brain homogenate) | Papp A→B at 60 min, 0.5 μM (P-gp (human MDR1) [3]) | recovery at 60 min, 0.5 μM (P-gp (human MDR1) [3]; MDCKII-MDR1 cell monolayers (transfected with human MDR1), pH 7.4) | Kp uu at 29 h, 1 μM (P-gp (human MDR1) [4]; MDCK-MDR1, pH 7.5) |
| --- | --- | --- | --- | --- | --- | --- | --- | --- | --- | --- | --- | --- | --- | --- | --- | --- | --- |
| CC(C)NCC(O)COc1cccc2ccccc12 (stereo not drawn) [Propranolol, propranolol] | 0.76 | 0.897 ± 0.018 | 86.8% | 3.7 ± 0.1 ×10⁻⁶ cm/s | 0.8 | 1.9 | 2.2 | 21% | 25% | ~20% | 0.35 ± 0.012 | 37.4% |  |  |  |  |  |
| NCC1(CC(=O)O)CCCCC1 [Gabapentin, gabapentin] | 0.13 |  | 99.8% | 1.6 ± 0.2 ×10⁻⁶ cm/s | 0.5 | 0.9 | 0.11 | 86% | 85% |  |  | 93.4% | 0.984 ± 0.062 | 0.946 ± 0.015 |  |  |  |
| CN(C)CCC=C1c2ccccc2COc2ccccc21 [Doxepin, doxepin] |  | 0.922 ± 0.029 | 87.1% | 2.2 ± 0.1 ×10⁻⁶ cm/s | 1.1 | 2.2 | 2.2 | 54% | 59% | ~50% | 0.248 ± 0.05 | 33.0% |  |  | 2 ± 0.1 ×10⁻⁶ cm/s | ~50% |  |
| O=C(c1ccc(F)cc1)C1CCN(CCn2c(=S)[nH]c3ccccc3c2=O)CC1 [Altanserin] | 0.85 | 0.451 ± 0.035 | 26.8% | 3.4 ± 0.3 ×10⁻⁶ cm/s | 1.1 | 1.49 | 1.48 | 17% | 18% | ~20% | 0.229 ± 0.014 | 22.1% |  |  |  |  |  |
| CN/C(=N/CCSCc1nc[nH]c1C)NC#N [Cimetidine, cimetidine] | 0.02 | > 1 | 99.2% | 2.5 ± 0.2 ×10⁻⁶ cm/s |  | 0.6 | 0.19 | 78% | 73% |  | 0.938 ± 0.05 | 95.6% |  |  | < 1 ×10⁻⁶ cm/s |  |  |
| CNCCC(Oc1ccc(C(F)(F)F)cc1)c1ccccc1 (stereo not drawn) [Fluoxetine, fluoxetine] |  | 0.66 ± 0.032 | 70.6% |  |  |  |  |  |  |  | 0.052 ± 0.005 | 5.7% |  |  |  |  |  |
| COc1ccc2c(c1)c(CC(=O)O)c(C)n2C(=O)c1ccc(Cl)cc1 [Indomethacin, indomethacin] | 0.13 |  |  | 2.7 ± 0.3 ×10⁻⁶ cm/s |  | 0.78 | 0.88 | 69% | 73% |  | 0.358 ± 0.08 | 42.8% |  |  |  |  | ≥ 1 |
